Measurements published in ChEMBL document CHEMBL6071165, “Design, synthesis and biological evaluation of plant-derived miliusol derivatives achieve TNBC profound regression in vivo” (Eur J Med Chem, 2024).
Active and inactive are the calls of the source. The rule behind the calls is not given here.

How the values were obtained:
MDA-MB-231 [1] = test: Antiproliferative activity against human MDA-MB-231 cells xenografted in female BALB/c mouse model assessed as fold change in upregulation of BIP protein level at 20 mg/kg administered subcutaneously incubated for 24 hrs by Western blot analysis (reference value: 1.00%); type: functional; conditions: route sc
[2] = Toxicity in female BALB/c mouse xenografted with human BT-549 cells assessed as effect on pathological changes in heart at 5 to 20 mg/kg, sc by H and E staining based analysis; type: organism-based; conditions: in vivo, dose 5-20 mg/kg
BT-549 [3] = test: Antiproliferative activity against human BT-549 cells xenografted in female BALB/c mouse model assessed as fold change in upregulation of BIP protein level at 5 mg/kg administered subcutaneously incubated for 24 hrs by Western blot analysis (reference value: 1.00%); type: functional; conditions: route sc
BT-549 [4] = test: Induction of apoptosis in human BT-549 cells assessed as upregulation of cleavage of PARP level at 0.5 to 2 uM incubated for 24 hrs by Western blot analysis; type: functional, cell-based; conditions: dose 0.5-2 µM
[5] = Antiproliferative activity against human MCF-10A cells assessed as inhibition of cell proliferation incubated for 24 hrs by MTT assay; type: toxicity, cell-based
MDA-MB-231 [6] = test: Downregulation of c-Jun level in human MDA-MB-231 cells incubated for 24 hrs by Western blot analysis; type: functional, cell-based; conditions: dose 0.5-2 µM
BT-549 [7] = test: Inhibition of colony formation in human BT-549 cells incubated for 7 days by Crystal violet staining based analysis; type: functional, cell-based; conditions: dose 0.5-2 µM, time 7.0 day
BT-549 [8] = test: Antiproliferative activity against human BT-549 cells xenografted in female BALB/c mouse model assessed as fold change in cleavage of caspase-3 level at 5 mg/kg administered subcutaneously incubated for 24 hrs by Western blot analysis (reference value: 1.00%); type: functional; conditions: route sc
MDA-MB-231 [9] = test: Induction of apoptosis in human MDA-MB-231 cells assessed as late apoptotic cells at 2 uM incubated for 24 hrs by Annexin V-PI staining based flow cytometric analysis (reference value: 1.83%); type: functional
MDA-MB-231 [10] = test: Inhibition of glycolysis in human MDA-MB-231 cells assessed as decrease in GLUT4 protein level at 0.5 to 2 uM incubated for 24 hrs by Western blot analysis; type: functional, cell-based; conditions: dose 0.5-2 µM
MDA-MB-231 [11] = test: Induction of apoptosis in human MDA-MB-231 cells assessed as necrotic cells at 1 uM incubated for 24 hrs by Annexin V-PI staining based flow cytometric analysis (reference value: 1.29%); type: functional
MDA-MB-231 [12] = test: Induction of apoptosis in human MDA-MB-231 cells assessed as necrotic cells at 0.5 uM incubated for 24 hrs by Annexin V-PI staining based flow cytometric analysis (reference value: 1.29%); type: functional
BT-549 [13] = test: Antiproliferative activity against human BT-549 cells xenografted in female BALB/c mouse model assessed as inhibition of Ki-67 expression at 5 to 20 mg/kg administered subcutaneously by immunohistochemical staining based microscopic analysis; type: functional, organism-based; conditions: dose 5-20 mg/kg, route sc
MDA-MB-231 [14] = test: Induction of ER stress in human MDA-MB-231 cells assessed as appearance of large number of vacuoles at 1 uM incubated for 24 hrs by TEM analysis; type: functional, cell-based
BT-549 [15] = test: Induction of apoptosis in human BT-549 cells assessed as necrotic cells at 1 uM incubated for 24 hrs by Annexin V-PI staining based flow cytometric analysis (reference value: 3.32%); type: functional
BT-549 [16] = test: Inhibition of cell migration in human BT-549 cells assessed as reduction in MMP-2 protein level at 1 uM incubated for 24 hrs by DAPI staining based immunofluorescence analysis; type: functional
BT-549 [17] = test: Induction of apoptosis in human BT-549 cells assessed as late apoptotic cells at 2 uM incubated for 24 hrs by Annexin V-PI staining based flow cytometric analysis (reference value: 2.95%); type: functional
MDA-MB-231 [18] = test: Downregulation of LDHA expression in human MDA-MB-231 cells at 1 uM incubated for 24 hrs by DAPI staining based immunofluorescence analysis; type: functional, cell-based
MDA-MB-231 [19] = test: Antiproliferative activity against human MDA-MB-231 cells xenografted in female BALB/c mouse model assessed as fold change in downregulation of MMP-2 protein level at 10 mg/kg administered subcutaneously incubated for 24 hrs by Western blot analysis (reference value: 1.00%); type: functional; conditions: route sc

SMILES: CC(C)=CCC/C(C)=C/[C@H]1OC(=O)CC12C[C@H](OC(=O)Cc1ccc(NC(=O)/C=C/c3ccccc3)cc1)C=CC2=O (some centres undefined)
- fold change (FC) (MDA-MB-231 [1]): 2.42
- Activity [2]: Non-Toxic
- fold change (FC) (BT-549 [3]): 1.4
- Activity (BT-549 [4]): Active
- IC50 at 24 h [5]: 57.1 µM
- Activity (MDA-MB-231 [6]): Dose-Dependent Effect
- inhibition (BT-549 [7]): Dose-Dependent Effect
- fold change (FC) (BT-549 [8]): 1.64
- Activity (MDA-MB-231 [9]): 42.4%
- inhibition (MDA-MB-231 [10]): Active
- Activity (MDA-MB-231 [11]): 15.9%
- Activity (MDA-MB-231 [12]): 12.7%
- Activity (BT-549 [13]): Active
- Activity (MDA-MB-231 [14]): Active
- Activity (BT-549 [15]): 5.44%
- inhibition (BT-549 [16]): Active
- Activity (BT-549 [17]): 50.1%
- Activity (MDA-MB-231 [18]): Active
- fold change (FC) (MDA-MB-231 [19]): 0.26
